Consider one compound from patent US9445999B2, “Process for preparing carrier particles for dry powders for inhalation” (CHIESI FARMACEUTICI S.p.A., priority 2010, dated 2016).

Data set [1] in a line: Particle size distribution (PSD) by laser diffraction with a Malvern apparatus. The class given is physicochemical. The settings on record: lactose 90-150 microns + 0.5% w/w MgSt, CYCLOMIX at given speed and time; mean of three determinations. The text has this:
In general terms, the particle size of the particles is quantified by measuring a characteristic equivalent sphere diameter, known as volume diameter, by laser diffraction.
In the present application, the particle size interval is expressed in terms of […]. Otherwise, the particle size distribution is expressed in terms of: i) the volume median diameter (VMD) which corresponds to the diameter of 50 percent by weight or volume respectively, of the particles, e.g. d(v0.5); and ii) the volume diameter (VD) in microns of 10% and 90% of the particles, respectively, e.g. d(v0.1) and d(v0.9).
iv) the particle size distribution (PSD) by laser diffraction with a Malvern apparatus; the water contact angle by the sessile drop method wherein the powder is in the form of a disc obtained by compaction (compressed powder disc method) according to the procedure reported above in the description;
The results are expresses as mean of three determinations. In Table 2, the water contact angle values and the corresponding extent of surface coating calculated from the Cassie and Baxter equation are also reported. Said equation was applied to the experimental values of the penultimate column of Table 2 using the reference values for magnesium state alone and alpha-lactose monohydrate alone. The variability in terms of S.D. of the experimental values is always less than ±10%, typically of ±5%.

The nature of data set [2]: Water contact angle by sessile drop (compressed powder disc method); extent of surface coating from the Cassie and Baxter equation. The class given is physicochemical. To be noted: 0.5% w/w MgSt carriers. The text has this:
The extent to which magnesium stearate coats the surface of the lactose particles may be determined by first measuring the water contact angle, and then applying the equation known in the literature as Cassie and Baxter, cited at page 338 of Colombo I et al., Il Farmaco, 1984, 39(10), pp. 328-341, which is incorporated herein by reference in its entirety, and reported below. cos θmixture=fMgSt cos θMgst+flactore cos θlactose where
fMgst and flactore are the surface area fractions of magnesium stearate and of lactose;
θMgSt is the water contact angle of magnesium stearate;
θlactose is the water contact angle of lactose; and
θmixture are the experimental contact angle values. […]
If a fully automated procedure is not available, the base (b) and the height (h) of the drop are measured on the display using a mobile reading scale, then the water contact angles (WCA) are calculated by applying the following formula: WCA=[arctg2h/b]×2×180/[…]
Typically the values are calculated as a mean of three different measurements taken at room temperature. […]
The results are expresses as mean of three determinations. In Table 2, the water contact angle values and the corresponding extent of surface coating calculated from the Cassie and Baxter equation are also reported. […]

As for `O.OC[C@H]1O[C@@H](O[C@H]2[C@H](O)[C@@H](O)[C@@H](O)O[C@@H]2CO)[C@H](O)[C@@H](O)[C@H]1O` [α-lactose monohydrate, alpha-lactose monohydrate], in data set [1], the “PSD d(v0.1)” value was 96.4, the “PSD d(v0.5)” value turned out to be 132.2 and the “PSD d(v0.9)” value is 182.3. Besides, the “Water Contact Angle” value in data set [2] (compressed powder disc, sessile drop) was determined as 8.35 E. In data set [2] (calculated from the Cassie and Baxter equation), the “Extent of Surface Coating” value is given as 0%.
